Measured values published in ChEMBL document CHEMBL3046587, “Baseline sensitivity of Monilinia laxa from Greece to fenhexamid and analysis of fenhexamid-resistant mutants” (Crop Prot, 2013).
Values after ≈ are worked out from the molar mass of the structure shown.

Key:
[1] = system: Monilinia laxa; experiment: Fungitoxicity against highly fenhexamid resistant Monilinia laxa MF-2 assessed as reduction in mycelial growth measured at 25 degC after 4 days; format: functional, organism-based; details: MF-2, 96 h
[2] = system: Monilinia laxa; experiment: Fungitoxicity against moderately fenhexamid resistant Monilinia laxa MF-6 assessed as reduction in mycelial growth measured at 25 degC after 4 days; format: functional, organism-based; details: MF-6, 96 h
[3] = system: Monilinia laxa; experiment: Fungitoxicity against moderately fenhexamid resistant Monilinia laxa MF-4 assessed as reduction in mycelial growth measured at 25 degC after 4 days; format: functional, organism-based; details: MF-4, 96 h
[4] = system: Monilinia laxa; experiment: Fungitoxicity against highly fenhexamid resistant Monilinia laxa MF-5 assessed as reduction in mycelial growth measured at 25 degC after 4 days; format: functional, organism-based; details: MF-5, 96 h
[5] = system: Monilinia laxa; experiment: Fungitoxicity against wild type Monilinia laxa K2 assessed as reduction in mycelial growth measured at 25 degC after 4 days; format: functional, organism-based; details: K2, 96 h
[6] = system: Monilinia laxa; experiment: Fungitoxicity against moderately fenhexamid resistant Monilinia laxa MF-22 assessed as reduction in mycelial growth measured at 25 degC after 4 days; format: functional, organism-based; details: MF-22, 96 h
[7] = system: Monilinia laxa; experiment: Fungitoxicity against highly fenhexamid resistant Monilinia laxa MF-3 assessed as reduction in mycelial growth measured at 25 degC after 4 days; format: functional, organism-based; details: MF-3, 96 h
[8] = system: Monilinia laxa; experiment: Fungitoxicity against moderately fenhexamid resistant Monilinia laxa MF-1 assessed as reduction in mycelial growth measured at 25 degC after 4 days; format: functional, organism-based; details: MF-1, 96 h
[9] = system: Monilinia laxa; experiment: Fungitoxicity against moderately fenhexamid resistant Monilinia laxa MF-7 assessed as reduction in mycelial growth measured at 25 degC after 4 days; format: functional, organism-based; details: MF-7, 96 h
[10] = system: Monilinia laxa; experiment: Fungitoxicity against moderately fenhexamid resistant Monilinia laxa MF-8 assessed as reduction in mycelial growth measured at 25 degC after 4 days; format: functional, organism-based; details: MF-8, 96 h
[11] = system: Monilinia laxa; experiment: Fungitoxicity against Monilinia laxa MF-19 assessed as diameter of mycelial colony measured at 25 degC after 4 days; format: functional
[12] = system: Monilinia laxa; experiment: Fungitoxicity against Monilinia laxa MF-4 assessed as diameter of mycelial colony measured at 25 degC after 4 days; format: functional
[13] = system: Monilinia laxa; experiment: Resistance factor, ratio of EC50 for Monilinia laxa MLBO7 to EC50 for wild type Monilinia laxa K2; format: functional
[14] = system: Monilinia laxa; experiment: Fungitoxicity against Monilinia laxa MLX2 assessed as diameter of mycelial colony measured at 25 degC after 4 days; format: functional
[15] = system: Monilinia laxa; experiment: Resistance factor, ratio of EC50 for Monilinia laxa MF-19 to EC50 for wild type Monilinia laxa K2; format: functional
[16] = system: Monilinia laxa; experiment: Fungitoxicity against Monilinia laxa MLK12 assessed as diameter of mycelial colony measured at 25 degC after 4 days; format: functional
[17] = system: Monilinia laxa; experiment: Resistance factor, ratio of EC50 for Monilinia laxa MF-8 to EC50 for wild type Monilinia laxa K2; format: functional
[18] = system: Monilinia laxa; experiment: Fungitoxicity against Monilinia laxa MF-2 assessed as diameter of mycelial colony measured at 25 degC after 4 days; format: functional
[19] = system: Monilinia laxa; experiment: Resistance factor, ratio of EC50 for Monilinia laxa MF-3 to EC50 for wild type Monilinia laxa K2; format: functional
[20] = system: Monilinia laxa; experiment: Fungitoxicity against Monilinia laxa MLC2 assessed as diameter of mycelial colony measured at 25 degC after 4 days; format: functional
[21] = system: Monilinia laxa; experiment: Fungitoxicity against Monilinia laxa MF-6 assessed as diameter of mycelial colony measured at 25 degC after 4 days; format: functional
[22] = system: Monilinia laxa; experiment: Fungitoxicity against Monilinia laxa MF-22 assessed as diameter of mycelial colony measured at 25 degC after 4 days; format: functional
[23] = system: Monilinia laxa; experiment: Resistance factor, ratio of EC50 for Monilinia laxa MF-15 to EC50 for wild type Monilinia laxa K2; format: functional
[24] = system: Monilinia laxa; experiment: Resistance factor, ratio of EC50 for Monilinia laxa MLP2 to EC50 for wild type Monilinia laxa K2; format: functional
[25] = system: Monilinia laxa; experiment: Fungitoxicity against Monilinia laxa MF-3 assessed as diameter of mycelial colony measured at 25 degC after 4 days; format: functional
[26] = system: Monilinia laxa; experiment: Resistance factor, ratio of EC50 for Monilinia laxa MF-1 to EC50 for wild type Monilinia laxa K2; format: functional
[27] = system: Monilinia laxa; experiment: Fungitoxicity against Monilinia laxa K2 assessed as diameter of mycelial colony measured at 25 degC after 4 days; format: functional
[28] = system: Monilinia laxa; experiment: Resistance factor, ratio of EC50 for Monilinia laxa MLC2 to EC50 for wild type Monilinia laxa K2; format: functional
[29] = system: Monilinia laxa; experiment: Fungitoxicity against Monilinia laxa MLP2 assessed as diameter of mycelial colony measured at 25 degC after 4 days; format: functional
[30] = system: Monilinia laxa; experiment: Fungitoxicity against Monilinia laxa MLK6 assessed as diameter of mycelial colony measured at 25 degC after 4 days; format: functional
[31] = system: Monilinia laxa; experiment: Resistance factor, ratio of EC50 for Monilinia laxa MF-7 to EC50 for wild type Monilinia laxa K2; format: functional
[32] = system: Monilinia laxa; experiment: Fungitoxicity against Monilinia laxa MF-5 assessed as diameter of mycelial colony measured at 25 degC after 4 days; format: functional
[33] = system: Monilinia laxa; experiment: Fungitoxicity against Monilinia laxa MF-15 assessed as diameter of mycelial colony measured at 25 degC after 4 days; format: functional
[34] = system: Monilinia laxa; experiment: Fungitoxicity against Monilinia laxa MF-7 assessed as diameter of mycelial colony measured at 25 degC after 4 days; format: functional
[35] = system: Monilinia laxa; experiment: Fungitoxicity against Monilinia laxa MF-20 assessed as diameter of mycelial colony measured at 25 degC after 4 days; format: functional
[36] = system: Monilinia laxa; experiment: Resistance factor, ratio of EC50 for Monilinia laxa MF-20 to EC50 for wild type Monilinia laxa K2; format: functional
[37] = system: Monilinia laxa; experiment: Fungitoxicity against Monilinia laxa MF-8 assessed as diameter of mycelial colony measured at 25 degC after 4 days; format: functional
[38] = system: Monilinia laxa; experiment: Resistance factor, ratio of EC50 for Monilinia laxa MF-5 to EC50 for wild type Monilinia laxa K2; format: functional
[39] = system: Monilinia laxa; experiment: Resistance factor, ratio of EC50 for Monilinia laxa MF-2 to EC50 for wild type Monilinia laxa K2; format: functional
[40] = system: Monilinia laxa; experiment: Resistance factor, ratio of EC50 for Monilinia laxa MF-22 to EC50 for wild type Monilinia laxa K2; format: functional
[41] = system: Monilinia laxa; experiment: Resistance factor, ratio of EC50 for Monilinia laxa MLX2 to EC50 for wild type Monilinia laxa K2; format: functional
[42] = system: Monilinia laxa; experiment: Resistance factor, ratio of EC50 for Monilinia laxa MF-4 to EC50 for wild type Monilinia laxa K2; format: functional
[43] = system: Monilinia laxa; experiment: Fungitoxicity against Monilinia laxa MF-1 assessed as diameter of mycelial colony measured at 25 degC after 4 days; format: functional
[44] = system: Monilinia laxa; experiment: Resistance factor, ratio of EC50 for Monilinia laxa MF-6 to EC50 for wild type Monilinia laxa K2; format: functional
[45] = system: Monilinia laxa; experiment: Resistance factor, ratio of EC50 for Monilinia laxa MLK12 to EC50 for wild type Monilinia laxa K2; format: functional
[46] = system: Monilinia laxa; experiment: Fungitoxicity against Monilinia laxa MLBO7 assessed as diameter of mycelial colony measured at 25 degC after 4 days; format: functional
[47] = system: Monilinia laxa; experiment: Resistance factor, ratio of EC50 for Monilinia laxa MLK6 to EC50 for wild type Monilinia laxa K2; format: functional

CCCN(CCOc1c(Cl)cc(Cl)cc1Cl)C(=O)n1ccnc1 [PROCHLORAZ]
EC50 [1]: 0.07 µg/mL (≈ 0.186 µM)
EC50 [2]: 0.03 µg/mL (≈ 0.0796 µM)
EC50 [3]: 0.04 µg/mL (≈ 0.106 µM)
EC50 [4]: 0.01 µg/mL (≈ 0.0265 µM)
EC50 [5]: 0.01 µg/mL (≈ 0.0265 µM)
EC50 [6]: 0.02 µg/mL (≈ 0.0531 µM)
EC50 [7]: 0.02 µg/mL (≈ 0.0531 µM)
EC50 [8]: 0.01 µg/mL (≈ 0.0265 µM)
EC50 [9]: 0.08 µg/mL (≈ 0.212 µM)
EC50 [10]: 0.02 µg/mL (≈ 0.0531 µM)

CC1(C(=O)Nc2ccc(O)c(Cl)c2Cl)CCCCC1 [FENHEXAMID]
EC50 [1]: 11.1 µg/mL (≈ 36.7 µM)
EC50 [2]: 5.8 µg/mL (≈ 19.2 µM)
Activity [11]: 55 mm
Activity [12]: 57 mm
Ratio EC50 [13]: 0.4
Activity [14]: 59 mm
Ratio EC50 [15]: 43
Activity [16]: 55 mm
Ratio EC50 [17]: 58
EC50 [3]: 4 µg/mL (≈ 13.2 µM)
EC50 [4]: 6.9 µg/mL (≈ 22.8 µM)
Activity [18]: 54 mm
Ratio EC50 [19]: 75
Activity [20]: 49 mm
Activity [21]: 56 mm
Activity [22]: 56 mm
Ratio EC50 [23]: 31
Ratio EC50 [24]: 0.3
Activity [25]: 60 mm
Ratio EC50 [26]: 23
EC50 [5]: 0.1 µg/mL (≈ 0.331 µM)
EC50 [6]: 3.7 µg/mL (≈ 12.2 µM)
Activity [27]: 57 mm
Ratio EC50 [28]: 3.7
Activity [29]: 60 mm
EC50 [7]: 7.4 µg/mL (≈ 24.5 µM)
Activity [30]: 52 mm
Ratio EC50 [31]: 22
Activity [32]: 57 mm
EC50 [8]: 2.2 µg/mL (≈ 7.28 µM)
Activity [33]: 56 mm
EC50 [9]: 2.3 µg/mL (≈ 7.61 µM)
Activity [34]: 55 mm
Activity [35]: 55 mm
Ratio EC50 [36]: 34
Activity [37]: 58 mm
Ratio EC50 [38]: 70
Ratio EC50 [39]: 111
Ratio EC50 [40]: 37
Ratio EC50 [41]: 1.1
Ratio EC50 [42]: 40
Activity [43]: 50 mm
Ratio EC50 [44]: 58
Ratio EC50 [45]: 2.2
Activity [46]: 60 mm
EC50 [10]: 5.8 µg/mL (≈ 19.2 µM)
Ratio EC50 [47]: 1.2

CCCN(CC)CC1COC2(CCC(C(C)(C)C)CC2)O1 (configuration not stated) [SPIROXAMINE]
EC50 [1]: 3.7 µg/mL (≈ 12.4 µM)
EC50 [2]: 12 µg/mL (≈ 40.3 µM)
EC50 [3]: 2.9 µg/mL (≈ 9.75 µM)
EC50 [4]: 3.5 µg/mL (≈ 11.8 µM)
EC50 [5]: 3.5 µg/mL (≈ 11.8 µM)
EC50 [6]: 3.3 µg/mL (≈ 11.1 µM)
EC50 [7]: 3.6 µg/mL (≈ 12.1 µM)
EC50 [8]: 3.8 µg/mL (≈ 12.8 µM)
EC50 [9]: 3.5 µg/mL (≈ 11.8 µM)
EC50 [10]: 3.2 µg/mL (≈ 10.8 µM)

CC(Cc1ccc(C(C)(C)C)cc1)CN1C[C@@H](C)O[C@@H](C)C1 (some centres not stated) [FENPROPIMORPH]
EC50 [1]: 0.18 µg/mL (≈ 0.593 µM)
EC50 [2]: 1 µg/mL (≈ 3.3 µM)
EC50 [3]: 0.12 µg/mL (≈ 0.395 µM)
EC50 [4]: 0.15 µg/mL (≈ 0.494 µM)
EC50 [5]: 0.14 µg/mL (≈ 0.461 µM)
EC50 [6]: 0.5 µg/mL (≈ 1.65 µM)
EC50 [7]: 0.11 µg/mL (≈ 0.362 µM)
EC50 [8]: 1 µg/mL (≈ 3.3 µM)
EC50 [9]: 0.1 µg/mL (≈ 0.33 µM)
EC50 [10]: 0.3 µg/mL (≈ 0.989 µM)

N#Cc1c[nH]cc1-c1cccc2c1OC(F)(F)O2 [FLUDIOXONIL]
EC50 [1]: 0.03 µg/mL (≈ 0.121 µM)
EC50 [2]: 0.02 µg/mL (≈ 0.0806 µM)
EC50 [3]: 0.03 µg/mL (≈ 0.121 µM)
EC50 [4]: 0.01 µg/mL (≈ 0.0403 µM)
EC50 [5]: 0.01 µg/mL (≈ 0.0403 µM)
EC50 [6]: 0.02 µg/mL (≈ 0.0806 µM)
EC50 [7]: 0.01 µg/mL (≈ 0.0403 µM)
EC50 [8]: 0.02 µg/mL (≈ 0.0806 µM)
EC50 [9]: 0.01 µg/mL (≈ 0.0403 µM)
EC50 [10]: 0.05 µg/mL (≈ 0.201 µM)
